Organism: Rattus norvegicus
Assay: DrugMatrix - Regimen: Daily Repeat
Assay type: toxicity, organism-based, Sprague-Dawley
Set-up: regimen Daily Repeat, gender Male, age 6-8 weeks
Conditions: in vivo, po, route oral GAVAGE, vehicle 100 % WATER
[1] = 70 mg/kg, 72 h, tissue Blood, dose level Low, time 3 day
[2] = 70 mg/kg, 72 h, tissue Plasma, dose level Low, time 3 day
[3] = 70 mg/kg, 120 h, tissue Blood, dose level Low, time 5 day
[4] = 70 mg/kg, 120 h, tissue Plasma, dose level Low, time 5 day
[5] = 700 mg/kg, 72 h, tissue Blood, dose level High, time 3 day
[6] = 700 mg/kg, 72 h, tissue Plasma, dose level High, time 3 day
[7] = 700 mg/kg, 120 h, tissue Blood, dose level High, time 5 day
[8] = 700 mg/kg, 120 h, tissue Plasma, dose level High, time 5 day

With MANGANESE CHLORIDE ANHYDROUS the “ABSOLUTE BASOPHIL” value [1] was 0 CELLS/uL, the “ABSOLUTE EOSINOPHIL” value [1] was 0 CELLS/uL and the “ABSOLUTE LYMPHOCYTE” value [1] was 8843.67 CELLS/uL. For the same sequence, the “ABSOLUTE MONOCYTE” value [1] was 103.33 CELLS/uL, the “ABSOLUTE SEGMENTED NEUTROPHIL” value [1] was 819.67 CELLS/uL and the BASOPHIL [1] was 0%. For the same sequence, the EOSINOPHIL [1] was 0%, the “ERYTHROCYTE COUNT” value [1] was 5.19 x10E6/uL and the HEMATOCRIT [1] was 32.17%. The HEMOGLOBIN [1] was 12.2 G/DL, the “LEUKOCYTE COUNT” value [1] was 9.77 x10E3/uL and the LYMPHOCYTE [1] was 90%. The “MEAN CORPUSCULAR HEMOGLOBIN” value [1] was 23.5 pg, the “MEAN CORPUSCULAR HEMOGLOBIN CONCENTRATION” value [1] was 37.93 G/DL and the “MEAN CORPUSCULAR VOLUME” value [1] was 61.97 fL. For the same sequence, the MONOCYTE [1] was 0.67%, the “NUCLEATED RED BLOOD CELLS” value [1] was 0 /100WBC and the “PLATELET COUNT” value [1] was 1240.67 x10E3/uL. For the same sequence, the “ALANINE AMINOTRANSFERASE” value [2] was 53.33 u/L, the “ALKALINE PHOSPHATASE” value [2] was 482 u/L and the “ASPARTATE AMINOTRANSFERASE” value [2] was 91.67 u/L. For the same sequence, the “BLOOD UREA NITROGEN” value [2] was 13.33 mg/dL, the “CARBON DIOXIDE” value [2] was 35.33 mmol/L and the CHLORIDE [2] was 99 MEQ/L. The CHOLESTEROL [2] was 84 mg/dL, the “CREATINE PHOSPHOKINASE” value [2] was 442.33 u/L and the CREATININE [2] was 0.22 mg/dL. The GLUCOSE [2] was 139.33 mg/dL, the “LACTATE DEHYDROGENASE” value [2] was 131 u/L and the PHOSPHORUS [2] was 12.07 mg/dL. For the same sequence, the POTASSIUM [2] was 6.21 MEQ/L, the “TOTAL BILIRUBIN” value [2] was 0.17 mg/dL and the “TOTAL PROTEIN” value [2] was 6.27 G/DL. The “URIC ACID” value [2] was 0.57 mg/dL, the “ABSOLUTE BASOPHIL” value [3] was 0 CELLS/uL and the “ABSOLUTE EOSINOPHIL” value [3] was 184.33 CELLS/uL. For the same sequence, the “ABSOLUTE MONOCYTE” value [3] was 189.67 CELLS/uL, the “ABSOLUTE SEGMENTED NEUTROPHIL” value [3] was 2003 CELLS/uL and the BASOPHIL [3] was 0%. The EOSINOPHIL [3] was 1%, the “ERYTHROCYTE COUNT” value [3] was 4.88 x10E6/uL and the HEMATOCRIT [3] was 30.07%. The HEMOGLOBIN [3] was 11.73 G/DL, the “LEUKOCYTE COUNT” value [3] was 15.07 x10E3/uL and the LYMPHOCYTE [3] was 84%. For the same sequence, the “MEAN CORPUSCULAR HEMOGLOBIN” value [3] was 24.27 pg, the “MEAN CORPUSCULAR HEMOGLOBIN CONCENTRATION” value [3] was 39.03 G/DL and the NEUTROPHIL [3] was 13.67%. The “NUCLEATED RED BLOOD CELLS” value [3] was 0.33 /100WBC, the “PLATELET COUNT” value [3] was 1245 x10E3/uL and the “ALANINE AMINOTRANSFERASE” value [4] was 35.67 u/L. For the same sequence, the ALBUMIN [4] was 3.9 G/DL, the “ALKALINE PHOSPHATASE” value [4] was 338 u/L and the “ASPARTATE AMINOTRANSFERASE” value [4] was 64.33 u/L. For the same sequence, the “BLOOD UREA NITROGEN” value [4] was 13.67 mg/dL, the “CARBON DIOXIDE” value [4] was 31.67 mmol/L and the CHOLESTEROL [4] was 69.33 mg/dL. For the same sequence, the “CREATINE PHOSPHOKINASE” value [4] was 218 u/L, the CREATININE [4] was 0.22 mg/dL and the GLUCOSE [4] was 158.33 mg/dL. The “LACTATE DEHYDROGENASE” value [4] was 105.67 u/L, the PHOSPHORUS [4] was 13.3 mg/dL and the POTASSIUM [4] was 6.22 MEQ/L. The “TOTAL BILIRUBIN” value [4] was 0.17 mg/dL, the “TOTAL PROTEIN” value [4] was 5.83 G/DL and the “ABSOLUTE BASOPHIL” value [5] was 0 CELLS/uL. The “ABSOLUTE EOSINOPHIL” value [5] was 33.67 CELLS/uL, the “ABSOLUTE LYMPHOCYTE” value [5] was 10434.33 CELLS/uL and the “ABSOLUTE MONOCYTE” value [5] was 178.67 CELLS/uL. The “ABSOLUTE SEGMENTED NEUTROPHIL” value [5] was 1653.33 CELLS/uL, the BASOPHIL [5] was 0% and the EOSINOPHIL [5] was 0.33%. For the same sequence, the “ERYTHROCYTE COUNT” value [5] was 4.97 x10E6/uL, the HEMATOCRIT [5] was 30.43% and the HEMOGLOBIN [5] was 11.8 G/DL. The “LEUKOCYTE COUNT” value [5] was 12.3 x10E3/uL, the LYMPHOCYTE [5] was 85.67% and the “MEAN CORPUSCULAR HEMOGLOBIN” value [5] was 23.77 pg. The “MEAN CORPUSCULAR HEMOGLOBIN CONCENTRATION” value [5] was 38.77 G/DL, the NEUTROPHIL [5] was 12.67% and the “NUCLEATED RED BLOOD CELLS” value [5] was 0 /100WBC. For the same sequence, the “PLATELET COUNT” value [5] was 1357.33 x10E3/uL, the “ALANINE AMINOTRANSFERASE” value [6] was 45 u/L and the ALBUMIN [6] was 3.77 G/DL. The “ALKALINE PHOSPHATASE” value [6] was 329.67 u/L, the “ASPARTATE AMINOTRANSFERASE” value [6] was 86.33 u/L and the “BLOOD UREA NITROGEN” value [6] was 13.67 mg/dL. For the same sequence, the “CARBON DIOXIDE” value [6] was 36.33 mmol/L, the CHLORIDE [6] was 99 MEQ/L and the CHOLESTEROL [6] was 63.33 mg/dL. For the same sequence, the “CREATINE PHOSPHOKINASE” value [6] was 347.67 u/L, the CREATININE [6] was 0.26 mg/dL and the GLUCOSE [6] was 139.67 mg/dL. For the same sequence, the “LACTATE DEHYDROGENASE” value [6] was 119 u/L, the PHOSPHORUS [6] was 11.6 mg/dL and the POTASSIUM [6] was 5.86 MEQ/L. For the same sequence, the SODIUM [6] was 145.53 MEQ/L, the “TOTAL BILIRUBIN” value [6] was 0.17 mg/dL and the “TOTAL PROTEIN” value [6] was 6.23 G/DL. For the same sequence, the “URIC ACID” value [6] was 0.47 mg/dL, the “ABSOLUTE BASOPHIL” value [7] was 0 CELLS/uL and the “ABSOLUTE EOSINOPHIL” value [7] was 0 CELLS/uL. For the same sequence, the “ABSOLUTE LYMPHOCYTE” value [7] was 14144.67 CELLS/uL, the “ABSOLUTE MONOCYTE” value [7] was 257.33 CELLS/uL and the “ABSOLUTE SEGMENTED NEUTROPHIL” value [7] was 3531.33 CELLS/uL. The BASOPHIL [7] was 0%, the EOSINOPHIL [7] was 0% and the “ERYTHROCYTE COUNT” value [7] was 5.15 x10E6/uL. For the same sequence, the HEMATOCRIT [7] was 30.93%, the HEMOGLOBIN [7] was 11.9 G/DL and the “LEUKOCYTE COUNT” value [7] was 17.93 x10E3/uL. For the same sequence, the LYMPHOCYTE [7] was 79.67%, the “MEAN CORPUSCULAR HEMOGLOBIN” value [7] was 23.1 pg and the “MEAN CORPUSCULAR VOLUME” value [7] was 60.03 fL. For the same sequence, the NEUTROPHIL [7] was 19%, the “NUCLEATED RED BLOOD CELLS” value [7] was 0 /100WBC and the “PLATELET COUNT” value [7] was 1336.67 x10E3/uL. The “ALANINE AMINOTRANSFERASE” value [8] was 40 u/L, the “ALKALINE PHOSPHATASE” value [8] was 346.33 u/L and the “ASPARTATE AMINOTRANSFERASE” value [8] was 68.67 u/L. For the same sequence, the “BLOOD UREA NITROGEN” value [8] was 12.67 mg/dL, the “CARBON DIOXIDE” value [8] was 33.67 mmol/L and the CHOLESTEROL [8] was 76.33 mg/dL. For the same sequence, the “CREATINE PHOSPHOKINASE” value [8] was 209.67 u/L, the CREATININE [8] was 0.31 mg/dL and the GLUCOSE [8] was 139.67 mg/dL. The “LACTATE DEHYDROGENASE” value [8] was 88.67 u/L, the POTASSIUM [8] was 5.7 MEQ/L and the “TOTAL BILIRUBIN” value [8] was 0.17 mg/dL. For the same sequence, the “TOTAL PROTEIN” value [8] was 5.97 G/DL and the “URIC ACID” value [8] was 0.4 mg/dL.
